Results as given in ChEMBL document CHEMBL1159014, “Isolation of potential cancer chemopreventive agents from Eriodictyon californicum” (1992).

Assays:
[1] = Chemopreventive activity in Syrian hamster embryo cells assessed as inhibition of metabolism of [3H]benzo(a)pyrene to water-soluble metabolites after 24 hrs at 10 ug/ml relative to control; format: functional; details: Mesocricetus auratus, read-out: INH
[2] = Chemopreventive activity in Syrian hamster embryo cells assessed as inhibition of metabolism of [3H]benzo(a)pyrene to water-soluble metabolites after 24 hrs at 20 ug/ml relative to control; format: functional; details: Mesocricetus auratus, read-out: INH
[3] = Chemopreventive activity in Syrian hamster embryo cells assessed as inhibition of metabolism of [3H]benzo(a)pyrene to water-soluble metabolites after 24 hrs at 5 ug/ml relative to control; format: functional; details: Mesocricetus auratus, read-out: INH
Mesocricetus auratus = organism: Mesocricetus auratus; assay: Chemopreventive activity in Syrian hamster embryo cells assessed as inhibition of [3H]benzo(a)pyrene-DNA binding at 10 ug/ml by [35S]phosphorothote post-labeling-HPLC; format: functional
[4] = Chemopreventive activity in Syrian hamster embryo cells assessed as pmol of [3H]benzo(a)pyrene binding per mg of DNA at 10 ug/ml by [35S]phosphorothote post-labeling-HPLC; format: functional, Mesocricetus auratus
[5] = Chemopreventive activity in Syrian hamster embryo cells assessed as pmol of (+)-anti-benzo(a)pyrene-7,8-diol-9,10-epoxide -dGuo adduct per mg of DNA at 10 ug/ml by [35S]phosphorothote post-labeling-HPLC; format: functional, Mesocricetus auratus

Row | Compound | inhibition at 10 µg/mL [1] [%] | inhibition at 20 µg/mL [2] [%] | inhibition at 5 µg/mL [3] [%] | inhibition (Mesocricetus auratus) [%] | Activity [4] [pmol] | Activity [5] [pmol]
1 | COc1cc(C2CC(=O)c3c(cc(O)c(OC)c3O)O2)ccc1O (stereo unspecified) | 19 | 32 | 9 |  |  | 
2 | COc1cc([C@@H]2CC(=O)c3c(O)cc(O)cc3O2)ccc1OC(=O)C(C)C |  | 52 |  |  |  | 
3 | COc1cc2c(c(O)c1OC)C(=O)CC(c1ccc(O)cc1)O2 (stereo unspecified) |  | 36 |  |  |  | 
4 | O=c1cc(-c2ccccc2)oc2cc(O)cc(O)c12 [CHRYSIN] | 44 | 86 | 14 |  |  | 
5 | COc1cc(-c2cc(=O)c3c(O)cc(O)cc3o2)ccc1O [CHRYSOERIOL] | 85 | 96 | 60 | 32 | 44.9 | 22.5
6 | COc1cc2oc(-c3ccc(O)cc3)cc(=O)c2c(O)c1OC [CIRSIMARITIN] | 85 | 92 | 69 | 71 | 19.4 | 11.5
7 | O=C1C[C@@H](c2ccc(O)c(O)c2)Oc2cc(O)cc(O)c21 [ERIODICTYOL] | 40 | 55 | 16 |  |  | 
8 | COc1c(O)cc2oc(-c3ccc(O)cc3)cc(=O)c2c1O [HISPIDULIN] | 75 | 92 | 18 |  |  | 
9 | COc1cc([C@@H]2CC(=O)c3c(O)cc(O)cc3O2)ccc1O [HOMOERIODICTYOL] |  | 36 |  |  |  | 
10 | O=C1C[C@@H](c2ccccc2)Oc2cc(O)cc(O)c21 [PINOCEMBRIN] | 29 | 66 | 8 |  |  | 
11 | COc1cc(O)c2c(c1)O[C@H](c1ccc(O)cc1)CC2=O [SAKURANETIN] |  | 52 |  |  |  | 
